Results reported in patent US8598145B2, “Mitochondrially delivered anti-cancer compounds” (priority 2008, dated 2013).

What was measured:
Type in all cases: cell-based, human
[1] = system: Jurkat; assay: MTT viability assay (IC50)
Excerpt: (§1) The following cell lines used in this study were obtained from ATCC, unless specified otherwise: Human T lymphoma cells Jurkat, human mesothelioma cells Meso-I, MM-BI, Ist-Mes, Ist-Mes-2 (Pass, H. I. et al. Characteristics of nine newly derived mesothelioma cell lines. Ann. Thorac. Surg. 59, 835-844 (1995)), human breast cancer cells MCF-7 (erbB2-low) and MDA-MB-453 (erbB2-high), human colorectal cells HCT-116, human hepatocarcinoma cells Huh-7, mouse mesothelioma cells AE17 (Jackaman, C. et al. IL-2 intratumoral immunotherapy enhances CD8+ T cells that mediate destruction of tumor cells and tumor-associated vasculature: a novel mechanism for IL-2. J. Immunol. 171, […] (2003), human non-malignant mesothelial cells Met-5A, […] (Claycomb, W. C. et al. HL-1 cells: a cardiac muscle cell line that contracts and retains phenotypic characteristics of the adult cardiomyocyte. Proc. Natl. Acad. Sci. USA 95, 2979-2984 […]) and H9c2, and the human endothelial-like cells EAhy926 (Edgell, C. J., McDonald, C. C. & Graham, J. B. Permanent cell line expressing human factor VIII-related antigen established by hybridization. Proc. Natl. Acad. Sci. USA 80, 3734-3737 (1983)). Jurkat cells were grown in the RPMI medium while DMEM was used for other malignant cell lines and for Met-5A cells, supplemented with 10% FCS and antibiotics. HL-1 cells, maintained in fibronectin/gelatine-coated dishes, were grown in the Claycomb medium supplemented with noradrenalin (Claycomb, W. C. et al. HL-1 cells: a cardiac muscle cell line that contracts and retains phenotypic characteristics of the adult cardiomyocyte. Proc. Natl. Acad. Sci. USA 95, 2979-2984 […]), EAhy926 cells were grown in complete DMEM supplemented with HAT (Edgell, C. J., McDonald, C. C. & Graham, J. B. Permanent cell line expressing human factor VIII-related antigen established by hybridization. Proc. Natl. Acad. Sci. USA 80, 3734-3737 (1983)). Cells deficient in mtDNA (ρ^0 phenotype) were prepared as detailed in Weber, T. et al., (Mitochondria play a central role in apoptosis induced by α-tocopheryl succinate, an agent with anticancer activity. Comparison with receptor-mediated pro-apoptotic signaling. Biochemistry 42, 4277-4291 (2003)). Acquisition of the ρ^0 phenotype was confirmed by lack of expression by the cells of the mtDNA-encoded cytochrome c oxidase subunit II (COXII not shown). Chinese hamster lung fibroblasts deficient in complex I (B10 cells) (See, B. B. et al. Molecular remedy of complex I defects: rotenone-insensitive internal NADH-quinone oxidoreductase of Saccharomyces cerevisiae mitochondria restores the NADH oxidase activity of complex I-deficient mammalian cells. Proc. Natl. Acad. Sci. USA 95, 9167-9171 (1998)) and complex II (CybL^−/−; B9 cells) (Oostveen, F. G., Au, H. C., Meijer, P. J. & Scheffler, I. E. A Chinese hamster mutant cell line with a defect in the integral membrane protein CII-3 of complex II of the mitochondrial electron transport chain. J. Biol. Chem. 270: 26104-26108 (1995)) as well as the parental cells (B1 cells) (Oostveen, F. G., Au, H. C., Meijer, P. J. & Scheffler, I. E. A Chinese hamster mutant cell line with a defect in the integral membrane protein CII-3 of complex II of the mitochondrial electron transport chain. J. Biol. Chem. 270: 26104-26108 (1995)) were grown in DMEM with 10% FCS, antibiotics, 10 mg/ml glucose and non-essential aminoacids.
(§2) Toxicity of α-TOS, VE11S (“VES”), MitoVE3S, MitoVE5S, MitoVE7S, MitoVE9S, MitoVE11S (“MitoVES”), MitoVE11AE (“MitoVEAE”), MitoVE11F (“MitoVEF”), MitoVE11M (“MitoVEM”), and VES4TPP towards cancer cells was assessed on the basis of IC50, as detailed in Turanek, J., et al. ((2008). Liposomal formulation of vitamin E analogs as an efficient and selective anti-cancer treatment. Clin. Cancer Res. (submitted)). […]

[2] = system: HCT-116; assay: MTT viability assay (IC50); settings: HCT-116, ~60% confluency
Excerpt: as §1, §2

[3] = system: MM-BI; assay: MTT viability assay (IC50); settings: ~60% confluency
Excerpt: as §1, §2

[4] = system: Ist-Mes; assay: MTT viability assay (IC50); settings: ~60% confluency
Excerpt: as §1, §2

[5] = system: MCF-7; assay: MTT viability assay (IC50); settings: MCF-7, ~60% confluency
Excerpt: as §1, §2

[6] = system: MDA-MB-453; assay: MTT viability assay (IC50); settings: MDA-MB-453, ~60% confluency
Excerpt: as §1, §2

[7] = system: Ist-Mes-2; assay: MTT viability assay (IC50); settings: Ist-Mes-2, ~60% confluency
Excerpt: as §1, §2

[8] = system: EAhy926; assay: MTT viability assay (IC50)
Excerpt: as §1, §2

[9] = system: Met5A; assay: MTT viability assay (IC50); settings: ~60% confluency
Excerpt: as §1, §2

[10] = system: MS cells derived from MCF7 cells; assay: Drug induced cell death in mammosphere cells (FIG. 8); settings: for sensitivity of MS cells to drug induced cell death: 5 μM MitoVES, 50 μM α-TOS or 10 μM parthenolide
Method: (§3) Adherent MCF7 cells and the corresponding mammosphere cells (MS) were cultured and assessed for morphological changes by microscopy (A) and for expression levels of markers as indicators of “sternness” by RT-PCR (B) and flow cytometry (C), including the expression of CD44 and CD24 (D). The adherent MCF7 cells (E) and the MS cells (F) were treated with 5 μM MitoVES, 50 μM α-TOS or 10 μM parthenolide and assessed for their sensitivity to drug induced cell death. […] Adherent MCF7 cells (I) and MS cells (J) were treated for 3 h with α-TOS (50 μM) or MitoVES homologues containing different lengths in the aliphatic side chain (5 μM each, either 11, 7 or 5 carbon chain in length) and the treated cells assessed for production of reactive oxygen species (ROS) by flow cytometry.

[11] = system: adherent MCF7 cells; assay: Drug induced cell death in adherent MCF7 cells (FIG. 8); settings: 5 μM MitoVES, 50 μM α-TOS or 10 μM parthenolide
Method: as §3

[12] = Jurkat, treated at 0.5 × 10^6 per ml, MTT viability curves
[13] = Table VI: Jurkat 0.5 × 10^6 per ml, analogs added as EtOH solution, MTT
[14] = EAhy926 treated at 100% confluency (top lines)
[15] = EAhy926 treated at ~50% confluency (bottom lines)

SMILES	IC50 [1, 12]	IC50 [1, 13]	IC50 [2]	IC50 [3]	IC50 [4]	IC50 [5]	IC50 [6]	IC50 [7]	IC50 [8, 14]	IC50 [8, 15]	IC50 [9]	sensitivity of MS cells to drug induced cell death [10]	apoptosis of MS cells ([10]; within 5-6 h after adding the drug)	sensitivity of adherent MCF7 cells to drug induced cell death [11]
Cc1c(C)c2c(c(C)c1OC(=O)CCC(=O)[O-])CCC(C)(CCCCCCCCCCC[P+](c1ccccc1)(c1ccccc1)c1ccccc1)O2 (stereo not drawn) [MitoVE11S]	0.48 ± 0.1 µM	0.48 ± 0.1 µM	2.8 ± 0.8 µM	1.4 ± 0.3 µM	2.2 ± 0.3 µM	1.9 ± 0.5 µM	3.3 ± 0.7 µM	1.1 ± 0.25 µM	32 ± 6 µM	0.7 ± 0.2 µM	21 ± 4 µM	very sensitive	> 90%	more so
Cc1c(C)c2c(c(C)c1OC(=O)CCC(=O)O)CC[C@@](C)(CCC[C@H](C)CCC[C@H](C)CCCC(C)C)O2 [α-TOS, α-tocopheryl succinate, reference compound]	18 ± 3 µM	18 ± 3 µM	31 ± 6 µM	26 ± 4 µM	24 ± 5 µM	22 ± 4 µM	28 ± 5 µM	21 ± 3 µM	> 100 µM	9.5 ± 2.7 µM	69 ± 8 µM	resistant	–	sensitive to killing
